According to ChEMBL document CHEMBL3585250, “New pyrazolo[4,3-e][1,2,4]triazine sulfonamides as carbonic anhydrase inhibitors” (Bioorg Med Chem, 2015):

Key:
Carbonic anhydrase 9 = Carbonic anhydrase 9 (Homo sapiens, UniProt Q16790); assay: Inhibition of human carbonic anhydrase-9 pre-incubated for 15 mins by stopped-flow CO2 hydration assay based Lineweaver-Burk plot method
Carbonic anhydrase 1 = Carbonic anhydrase 1 (Homo sapiens, UniProt P00915); assay: Inhibition of human carbonic anhydrase-1 pre-incubated for 15 mins by stopped-flow CO2 hydration assay based Lineweaver-Burk plot method
Chain of Carbonic anhydrase 1 (P00915 whole entry): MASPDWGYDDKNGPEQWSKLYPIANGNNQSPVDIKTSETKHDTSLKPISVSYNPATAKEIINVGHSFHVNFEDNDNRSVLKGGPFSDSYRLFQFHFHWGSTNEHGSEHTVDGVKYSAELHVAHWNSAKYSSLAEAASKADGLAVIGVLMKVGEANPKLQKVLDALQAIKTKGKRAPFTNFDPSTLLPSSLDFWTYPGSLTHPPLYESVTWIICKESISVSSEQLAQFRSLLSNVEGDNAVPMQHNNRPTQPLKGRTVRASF

MDA-MB-231 [1] = assay: Cytotoxic activity against human MDA-MB-231 cells assessed as reduction in cell viability incubated for 24 hrs by MTT assay; assay type: functional, cell-based; settings: MDA-MB-231, 24 h
Carbonic anhydrase 12 = Carbonic anhydrase 12 (Homo sapiens, UniProt O43570); assay: Inhibition of human carbonic anhydrase-12 pre-incubated for 15 mins by stopped-flow CO2 hydration assay based Lineweaver-Burk plot method
Chain of Carbonic anhydrase 12 (O43570 whole entry): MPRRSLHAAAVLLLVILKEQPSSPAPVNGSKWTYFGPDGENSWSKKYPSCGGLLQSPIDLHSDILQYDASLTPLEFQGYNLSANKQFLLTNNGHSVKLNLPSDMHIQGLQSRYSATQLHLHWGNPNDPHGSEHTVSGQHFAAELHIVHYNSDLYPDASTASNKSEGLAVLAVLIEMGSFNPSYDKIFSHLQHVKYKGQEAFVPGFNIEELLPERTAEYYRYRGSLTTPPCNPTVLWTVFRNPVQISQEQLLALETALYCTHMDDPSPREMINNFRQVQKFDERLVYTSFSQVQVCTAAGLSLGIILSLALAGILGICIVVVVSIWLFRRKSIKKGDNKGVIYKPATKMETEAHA

Carbonic anhydrase 2 = Carbonic anhydrase 2 (Homo sapiens, UniProt P00918); assay: Inhibition of human carbonic anhydrase-2 pre-incubated for 15 mins by stopped-flow CO2 hydration assay based Lineweaver-Burk plot method
MDA-MB-231 [2] = assay: Inhibition of DNA synthesis in human MDA-MB-231 cells assessed as reduction in [3H]-thymidine incorporation incubated for 24 hrs by liquid scintillation counting method; assay type: functional, cell-based
MCF7 [3] = assay: Inhibition of DNA synthesis in human MCF7 cells assessed as reduction in [3H]-thymidine incorporation incubated for 24 hrs by liquid scintillation counting method; assay type: functional, cell-based
MCF7 [4] = assay: Cytotoxic activity against human MCF7 cells assessed as reduction in cell viability incubated for 24 hrs by MTT assay; assay type: functional, cell-based; settings: MCF7, 24 h

`CCOc1ccc(S(=O)(=O)NC[C@H](C)O)cc1-c1nnc2c(n1)c(C)nn2-c1ccc(C)cc1` was tested, and the Ki (Carbonic anhydrase 9) was 0.0138 µM, the Ki (Carbonic anhydrase 1) was 0.81 µM and the IC50 (MDA-MB-231 [1]) was > 200 µM. The Ki (Carbonic anhydrase 12) was 0.0828 µM, the Ki (Carbonic anhydrase 2) was > 50 µM and the IC50 (MDA-MB-231 [2]) was > 200 µM. For the same compound, the IC50 (MCF7 [3]) was > 200 µM and the IC50 (MCF7 [4]) was > 200 µM.
`CCOc1ccc(S(=O)(=O)N[C@@H](C)CC)cc1-c1nnc2c(n1)c(C)nn2-c1ccc(C)cc1` was tested, and the Ki (Carbonic anhydrase 9) was 0.0277 µM, the Ki (Carbonic anhydrase 1) was 3.44 µM and the IC50 (MDA-MB-231 [1]) was > 200 µM. The Ki (Carbonic anhydrase 12) was 0.0776 µM, the Ki (Carbonic anhydrase 2) was > 50 µM and the IC50 (MDA-MB-231 [2]) was > 200 µM. The IC50 (MCF7 [3]) was > 200 µM and the IC50 (MCF7 [4]) was > 200 µM.
`CCOc1ccc(S(=O)(=O)N2CCNCC2)cc1-c1nnc2c(n1)c(C)nn2-c1ccc(Cl)cc1` was tested, and the Ki (Carbonic anhydrase 1) was 4.21 µM, the Ki (Carbonic anhydrase 12) was 0.0931 µM and the Ki (Carbonic anhydrase 2) was > 50 µM.
`CCOc1ccc(S(=O)(=O)N2CCN(C)CC2)cc1-c1nnc2c(n1)c(C)nn2-c1ccc(S(=O)(=O)N2CCN(C)CC2)c(Cl)c1` was tested, and the Ki (Carbonic anhydrase 9) was 0.417 µM, the Ki (Carbonic anhydrase 1) was 0.571 µM and the Ki (Carbonic anhydrase 12) was 0.0794 µM. The Ki (Carbonic anhydrase 2) was > 50 µM.
`CCOc1ccc(S(=O)(=O)N2CCN(C)CC2)cc1-c1nnc2c(n1)c(C)nn2-c1ccc(Cl)cc1` was tested, and the Ki (Carbonic anhydrase 9) was 0.403 µM, the Ki (Carbonic anhydrase 1) was 0.854 µM and the IC50 (MDA-MB-231 [1]) was > 200 µM. The Ki (Carbonic anhydrase 12) was 0.0815 µM, the Ki (Carbonic anhydrase 2) was > 50 µM and the IC50 (MDA-MB-231 [2]) was > 200 µM. The IC50 (MCF7 [3]) was > 200 µM and the IC50 (MCF7 [4]) was > 200 µM.
For `CCOc1ccc(S(=O)(=O)NCCO)cc1-c1nnc2c(n1)c(C)nn2-c1ccc(C)cc1`, the Ki (Carbonic anhydrase 9) was 0.0245 µM, the Ki (Carbonic anhydrase 1) was 0.605 µM and the Ki (Carbonic anhydrase 12) was 0.0915 µM. For the same compound, the Ki (Carbonic anhydrase 2) was > 50 µM.
With `CCOc1ccc(S(=O)(=O)N2CCN(C)CC2)cc1-c1nnc2c(n1)c(C)nn2-c1ccc(S(=O)(=O)N2CCN(C)CC2)cc1` the Ki (Carbonic anhydrase 9) was 0.0296 µM, the Ki (Carbonic anhydrase 1) was 0.467 µM and the IC50 (MDA-MB-231 [1]) was > 200 µM. The Ki (Carbonic anhydrase 12) was 0.536 µM, the Ki (Carbonic anhydrase 2) was > 50 µM and the IC50 (MDA-MB-231 [2]) was > 200 µM. The IC50 (MCF7 [3]) was > 200 µM and the IC50 (MCF7 [4]) was > 200 µM.
`CCOc1ccc(S(N)(=O)=O)cc1-c1nnc2c(n1)c(C)nn2-c1ccc(C)cc1` was tested, and the Ki (Carbonic anhydrase 1) was 4.49 µM, the Ki (Carbonic anhydrase 12) was 0.0775 µM and the Ki (Carbonic anhydrase 2) was 7.07 µM.
In the case of `CCOc1ccc(S(=O)(=O)NC[C@@H](C)O)cc1-c1nnc2c(n1)c(C)nn2-c1ccc(C)cc1`, the Ki (Carbonic anhydrase 9) is reported as 0.0356 µM, the Ki (Carbonic anhydrase 1) is reported as 0.798 µM and the IC50 (MDA-MB-231 [1]) is reported as > 200 µM. For the same compound, the Ki (Carbonic anhydrase 12) was 0.0778 µM, the Ki (Carbonic anhydrase 2) was > 50 µM and the IC50 (MDA-MB-231 [2]) was > 200 µM. For the same compound, the IC50 (MCF7 [3]) was > 200 µM and the IC50 (MCF7 [4]) was > 200 µM.
With `CCOc1ccc(S(=O)(=O)N[C@H](C)CC)cc1-c1nnc2c(n1)c(C)nn2-c1ccc(C)cc1` the Ki (Carbonic anhydrase 9) was 0.0266 µM, the Ki (Carbonic anhydrase 1) was 3.72 µM and the IC50 (MDA-MB-231 [1]) was > 200 µM. The Ki (Carbonic anhydrase 12) was 0.0703 µM, the Ki (Carbonic anhydrase 2) was > 50 µM and the IC50 (MDA-MB-231 [2]) was > 200 µM. The IC50 (MCF7 [3]) was > 200 µM and the IC50 (MCF7 [4]) was > 200 µM.
With `CCOc1ccc(S(=O)(=O)N2CCN(C)CC2)cc1-c1nnc2c(n1)c(C)nn2-c1ccc(C)cc1` the Ki (Carbonic anhydrase 9) was 0.0254 µM, the Ki (Carbonic anhydrase 1) was 0.33 µM and the Ki (Carbonic anhydrase 12) was 0.0781 µM. For the same compound, the Ki (Carbonic anhydrase 2) was > 50 µM.
